According to EP4671247A1, “SUBSTITUTED PYRAZOLOPYRIMIDINE COMPOUND AND PHARMACEUTICAL USE THEREOF” (Japan Tobacco Inc., priority 2023, dated 2024):
pIC50: −log10 of the molar value.

The compounds below were run against T1, NLRP3 inflammasome (Homo sapiens, UniProt Q96P20) (assay: Evaluation of NLRP3 inflammasome inhibitory activity (inhibition of IL-1β production in LPS/Nigericin-stimulated THP1-Null cells, AlphaLISA)). Conditions: IC50, IL-1β production in THP1-Null cells; PMA, 1 µg/mL Lipopolysaccharides 3 hours, Nigericin 7.5 µmol/L 1.5 hours.
T1 construct: host or cells: THP1-Null cells (PMA-differentiated, LPS-primed, nigericin-stimulated)
T1 sequence (Q96P20 whole entry): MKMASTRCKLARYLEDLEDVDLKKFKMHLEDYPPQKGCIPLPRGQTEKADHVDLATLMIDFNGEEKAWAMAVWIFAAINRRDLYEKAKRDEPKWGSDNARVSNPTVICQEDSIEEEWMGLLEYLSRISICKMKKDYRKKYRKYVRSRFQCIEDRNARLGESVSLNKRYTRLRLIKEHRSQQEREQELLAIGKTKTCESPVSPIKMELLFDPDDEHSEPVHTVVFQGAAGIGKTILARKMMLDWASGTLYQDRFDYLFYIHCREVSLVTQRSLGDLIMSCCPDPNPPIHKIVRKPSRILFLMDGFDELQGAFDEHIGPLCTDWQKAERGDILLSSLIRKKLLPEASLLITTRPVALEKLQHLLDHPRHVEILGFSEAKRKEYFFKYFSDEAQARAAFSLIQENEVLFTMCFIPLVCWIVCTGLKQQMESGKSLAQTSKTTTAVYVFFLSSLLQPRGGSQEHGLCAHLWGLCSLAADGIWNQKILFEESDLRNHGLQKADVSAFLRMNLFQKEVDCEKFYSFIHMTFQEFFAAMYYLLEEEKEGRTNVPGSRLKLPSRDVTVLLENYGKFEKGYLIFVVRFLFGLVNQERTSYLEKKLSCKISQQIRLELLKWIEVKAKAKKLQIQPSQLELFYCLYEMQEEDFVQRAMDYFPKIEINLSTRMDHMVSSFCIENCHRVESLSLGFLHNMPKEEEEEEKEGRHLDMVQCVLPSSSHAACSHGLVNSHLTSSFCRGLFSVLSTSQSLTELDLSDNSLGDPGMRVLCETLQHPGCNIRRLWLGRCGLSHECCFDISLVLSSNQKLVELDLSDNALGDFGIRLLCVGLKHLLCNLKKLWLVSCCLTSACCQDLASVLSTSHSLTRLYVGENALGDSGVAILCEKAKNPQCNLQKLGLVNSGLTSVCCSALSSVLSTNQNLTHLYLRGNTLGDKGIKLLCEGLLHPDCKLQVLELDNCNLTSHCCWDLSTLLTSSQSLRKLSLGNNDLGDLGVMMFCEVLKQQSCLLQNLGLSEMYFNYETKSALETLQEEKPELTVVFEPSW
Type: cell-based
Procedure: The NLRP3 inflammasome inhibitory activity of test compounds were evaluated on the basis of the inhibitory activity of the IL-1β production in THP1-Null cells (Product Number: thp-null, InvivoGen).
The supernatant of the culture was removed, and thereto was added media for assay (25 µL/well) containing 1 µg/mL Lipopolysaccharides (Product Number: L2654, Sigma-Aldrich (registered trademark)). […] The supernatant of the culture was removed. […] A solution containing a test compound (20 µL/well) was added to test compound-setting wells. […] The supernatant of the culture was cryonically stored (set at -20°C) until measurement of IL-1β.
The amount of IL-1β in the culture supernatant was quantitated with AlphaLISA (registered trademark) Human IL-1β Detection Kit (Product Number: AL220C, Perkin Elmer). Fluorescence intensity was measured with a microplate reader EnSpier (Model number: 2300-00J, Perkin Elmer) or EnSight (Model number: HH34000000, Perkin Elmer) according to procedure manuals attached thereto. Inhibition rates of the test compound-setting wells were calculated on the basis of 100% for the blank-setting wells and 0% for the control-setting wells.
Compound `Cc1cc(C(C)(C)F)cc(C)c1-n1cc2c(=O)[nH]c(C3CC3)nc2n1` [Example 85] has a pIC50 of 7.54.

Same assay, conditions: IL-1β production in THP1-Null cells; PMA, 1 µg/mL Lipopolysaccharides 3 hours, Nigericin 7.5 µmol/L 1.5 hours
`Cc1cc(OC(F)F)cc(C)c1-n1cc2c(=O)[nH]c(C3COCC3F)nc2n1` (single isomer, unassigned) [Example 183] gave a pIC50 of 7.46. With `COC1CC(c2nc3nn(-c4c(C)cc(Br)cc4C)cc3c(=O)[nH]2)C1` (single isomer, unassigned) [Example 122] the pIC50 was 7.21. For `Cc1cc(OC(F)F)cc(C)c1-n1cc2c(=O)[nH]c(C3CCOCCO3)nc2n1` (single isomer, unassigned) [Example 193], the pIC50 was 7.57. For `Cc1cc(C2CC2)cc(C)c1-n1cc2c(=O)[nH]c(C3(F)CCOC3)nc2n1` (single isomer, unassigned) [Example 78], the pIC50 was 7.48. With `Cc1cc(C2CC2)cc(C)c1-n1cc2c(=O)[nH]c(C3CCOC3)nc2n1` (single isomer, unassigned) [Example 50] the pIC50 was 8.30. With `Cc1cc(Br)cc(C)c1-n1cc2c(=O)[nH]c([C@@H]3C[C@@H]3F)nc2n1` [Example 91] the pIC50 was 8.10. For `Cc1cc(C2CC2)cc(C)c1-n1cc2c(=O)[nH]c(C(O)C(F)F)nc2n1` (racemic) [Example 158], the pIC50 was 7.59. Compound `Cc1cc(C2CC2)cc(C)c1-n1cc2c(=O)[nH]c(C3CCOC3)nc2n1` (single isomer, unassigned) [Example 51] has a pIC50 of 7.62. `Cc1cc(C(C)(F)F)cc(C)c1-n1cc2c(=O)[nH]c(C3CCOCCO3)nc2n1` (racemic) [Example 168] was tested, and the pIC50 was 7.13.

Same assay, conditions: IL-1β production in THP1-Null cells; PMA, 1 µg/mL Lipopolysaccharides 3 hours, Nigericin 7.5 µmol/L 1.5 hours; read-out: IC50
`COc1cc(C2CC2)cc(C)c1-n1cc2c(=O)[nH]c(C3(F)CCOCC3)nc2n1` [Example 111] gave a pIC50 of 7.82. Work on `Cc1cc(C2CC2)cc(C)c1-n1cc2c(=O)[nH]c(C34CC(F)(C3)C4)nc2n1` [Example 49] yielded a pIC50 of 7.62. Compound `Cc1cc(C2CC2)cc(C)c1-n1cc2c(=O)[nH]c(C(=O)NC3COC3)nc2n1` [Example 201] has a pIC50 of 6.13. `Cc1ccccc1-n1cc2c(=O)[nH]c(C3=CCCC3)nc2n1` [Example 2] was tested, and the pIC50 was 5.89. With `Cc1cc(C2CC2)cc(C)c1-n1cc2c(=O)[nH]c(C34CCOCC3C4(F)F)nc2n1` (racemic) [Example 115] the pIC50 was 6.37. `CC(=O)c1nc2nn(-c3c(C)cc(C(C)(F)F)cc3C)cc2c(=O)[nH]1` [Example 206] was tested, and the pIC50 was 6.44. `Cc1cc(C(C)(F)F)cc(C)c1-n1cc2c(=O)[nH]c(C(C)O)nc2n1` (racemic) [Example 144, (RS)-2-{4-(1,1-difluoroethyl)-2,6-dimethylphenyl}-6-(1-hydroxyethyl)-2,5-dihydro-4H-pyrazolo[3,4-d]pyrimidin-4-one] gave a pIC50 of 7.24. In the case of `Cc1cc(C2CC2)cc(C)c1-n1cc2c(=O)[nH]c(C3(F)CCOCC3)nc2n1` [Example 73], the pIC50 was 7.68. `Cc1cc(OC(F)F)cc(C)c1-n1cc2c(=O)[nH]c(C3CC(C)OC(C)C3)nc2n1` (stereo not shown) [Example 89] gave a pIC50 of 6.35. `Cc1cc(C(C)(F)F)cc(C)c1-n1cc2c(=O)[nH]c(C3(F)CCOCC3)nc2n1` [Example 107] was tested, and the pIC50 was 7.82. Compound `Cc1cc(C2CC2)cc(C)c1-n1nc2nc(C3CC3)[nH]c(=O)c2c1C#N` [Example 87] has a pIC50 of 7.96. `Cc1ccc(-n2cc3c(=O)[nH]c(C4CCCCO4)nc3n2)c(C)c1` (racemic) [Example 40] gave a pIC50 of 6.37. With `COCc1nc2nn(-c3ccc(C)cc3C)cc2c(=O)[nH]1` [Example 5] the pIC50 was 6.24. Compound `Cc1cc(C2CC2)cc(C)c1-n1cc2c(=O)[nH]c(C3=CCOCC3)nc2n1` [Example 131] has a pIC50 of 8.30. In the case of `Cc1cc(Br)cc(C)c1-n1cc2c(=O)[nH]c(C3COC3)nc2n1` [Example 77], the pIC50 was 7.85. `Cc1cc(C(C)(F)F)cc(C)c1-n1cc2c(=O)[nH]c([C@@H]3C[C@H]3F)nc2n1` (single isomer, unassigned) [Example 146] showed a pIC50 of 7.82. `CCNC(=O)c1nc2nn(-c3c(C)cc(C4CC4)cc3C)cc2c(=O)[nH]1` [Example 205] was tested, and the pIC50 was 7.96. For `Cc1ccc(-n2cc3c(=O)[nH]c(C)nc3n2)c(C)c1` [Example 4], the pIC50 was 6.27. Work on `Cc1cc(Br)cc(C)c1-n1cc2c(=O)[nH]c(COC3CCCOC3)nc2n1` (racemic) [Example 56] yielded a pIC50 of 6.46. `COc1cc(C)c(-n2cc3c(=O)[nH]c(COCc4ccccc4)nc3n2)c(C)c1` [Example 67] showed a pIC50 of 6.11. Compound `Cc1cc(OC(F)F)cc(C)c1-n1cc2c(=O)[nH]c(C3CC3)nc2n1` [Example 54] has a pIC50 of 7.48. Work on `Cc1cc(C2CC2)cc(C)c1-n1cc2c(=O)[nH]c(COC3CCCOC3)nc2n1` (racemic) [Example 57] yielded a pIC50 of 6.47. In the case of `COCc1c2c(=O)[nH]c(C3CC3)nc2nn1-c1c(C)cc(C2CC2)cc1C` [Example 88, 6-cyclopropyl-2-(4-cyclopropyl-2,6-dimethylphenyl)-3-(methoxymethyl)-2,5-dihydro-4H-pyrazolo[3,4-d]pyrimidin-4-one], the pIC50 was 7.74. `Cc1cc(OC(F)F)cc(C)c1-n1cc2c(=O)[nH]c([C@H](C)O)nc2n1` (single isomer, unassigned) [Example 166] showed a pIC50 of 5.89. `Cc1cc(Br)cc(C)c1-n1cc2c(=O)[nH]c(COCC3CCOCC3)nc2n1` [Example 46] gave a pIC50 of 6.85. `Cc1cc(OC(F)F)cc(C)c1-n1cc2c(=O)[nH]c(C(O)C(F)F)nc2n1` (racemic) [Example 167] showed a pIC50 of 6.64. Compound `Cc1ccc(-n2cc3c(=O)[nH]c(CCCS(C)(=O)=O)nc3n2)c(C)c1` [Example 37] has a pIC50 of 5.96. In the case of `COCc1nc2nn(-c3c(C)cc(Br)cc3C)cc2c(=O)[nH]1` [Example 27], the pIC50 was 7.54. Work on `Cc1cc(Br)cc(C)c1-n1cc2c(=O)[nH]c(COCCC(C)(C)O)nc2n1` [Example 74] yielded a pIC50 of 6.72. With `Cc1cc(C2CC2)cc(C)c1-n1cc2c(=O)[nH]c(CCF)nc2n1` [Example 101] the pIC50 was 7.62. `CCc1nc2nn(-c3c(C)cc(C4(F)CC4)cc3C)cc2c(=O)[nH]1` [Example 192] showed a pIC50 of 7.70. In the case of `Cc1cc(C(C)(F)F)cc(C)c1-n1cc2c(=O)[nH]c([C@@H](C)O)nc2n1` (single isomer, unassigned) [Example 154], the pIC50 was 7.60. With `CNC(=O)c1nc2nn(-c3c(C)cc(C4CC4)cc3C)cc2c(=O)[nH]1` [Example 196] the pIC50 was 7.66. Work on `Cc1cc(OC(F)F)cc(C)c1-n1cc2c(=O)[nH]c(C3=CCOCC3)nc2n1` [Example 135] yielded a pIC50 of 7.48. For `Cc1cc(C2CC2)cc(C)c1-n1cc2c(=O)[nH]c(C3COC3)nc2n1` [Example 39], the pIC50 was 7.80. With `Cc1cc(C(C)(F)F)cc(C)c1-n1cc2c(=O)[nH]c(C3CC3)nc2n1` [Example 80] the pIC50 was 7.54. In the case of `Cc1cc(OC(F)F)cc(C)c1-n1cc2c(=O)[nH]c(CCO)nc2n1` [Example 209], the pIC50 was 7.60. For `Cc1cc(Br)cc(C)c1-n1cc2c(=O)[nH]c(C3CCOCCO3)nc2n1` (racemic) [Example 160], the pIC50 was 7.43. With `Cc1cc(Br)cc(C)c1-n1cc2c(=O)[nH]c([C@@H]3CCOCCO3)nc2n1` [Example 186] the pIC50 was 7.06. `Cc1cc(Br)cc(C)c1-n1cc2c(=O)[nH]c(CN3CCCC3=O)nc2n1` [Example 66] showed a pIC50 of 6.37. In the case of `Cc1ccc(-n2cc3c(=O)[nH]c(C(F)F)nc3n2)c(C)c1` [Example 10], the pIC50 was 4.89. Compound `Cc1cc(OC(F)F)cc(C)c1-n1cc2c(=O)[nH]c(COC(F)F)nc2n1` [Example 148] has a pIC50 of 7.21. `Cc1cc(Br)cc(C)c1-n1cc2c(=O)[nH]c(COC(F)F)nc2n1` [Example 132] gave a pIC50 of 7.62. `Cc1cc(Br)cc(C)c1-n1cc2c(=O)[nH]c(COCCO)nc2n1` [Example 96] gave a pIC50 of 6.57. For `Cc1cc(C2CC2)cc(C)c1-n1cc2c(=O)[nH]c(C3(F)CC3)nc2n1` [Example 48], the pIC50 was 7.64. `Cc1cc(C2CC2)cc(C)c1-n1cc2c(=O)[nH]c(C3CC(F)(F)C3)nc2n1` [Example 45] was tested, and the pIC50 was 8.15. Compound `COCC1C(c2nc3nn(-c4c(C)cc(C5CC5)cc4C)cc3c(=O)[nH]2)C1(F)F` (racemic) [Example 120] has a pIC50 of 7.40. `CCC(O)c1nc2nn(-c3c(C)cc(C4CC4)cc3C)cc2c(=O)[nH]1` (racemic) [Example 134] was tested, and the pIC50 was 7.62. For `Cc1cc(C2CC2)cc(C)c1-n1cc2c(=O)[nH]c(C3CCOCC3)nc2n1` [Example 42], the pIC50 was 8.40. For `Cc1cc(OC(F)F)cc(C)c1-n1cc2c(=O)[nH]c(C3(F)CCOCC3)nc2n1` [Example 136], the pIC50 was 7.31. `CCc1nc2nn(-c3c(C)cc(OC(F)F)cc3C)cc2c(=O)[nH]1` [Example 180] gave a pIC50 of 7.70. `Cc1cc(C2CC2)cc(C)c1-n1cc2c(=O)[nH]c(C3CCOCCO3)nc2n1` (single isomer, unassigned) [Example 178, 2-(4-cyclopropyl-2,6-dimethylphenyl)-6-(1,4-dioxepan-5-yl)-2,5-dihydro-4H-pyrazolo[3,4-d]pyrimidin-4-one] gave a pIC50 of 7.96. `Cc1cc(Br)cc(C)c1-n1cc2c(=O)[nH]c(CC3COCCO3)nc2n1` (racemic) [Example 113] gave a pIC50 of 6.85.

Same assay, conditions: test compound at 2.4 µM; IL-1β production in THP1-Null cells
In the case of `Cc1ccc(-n2cc3c(=O)n(CC(=O)O)c(C)nc3n2)c(C)c1` [Example 15], the inhibition at 2.4 µM was -3%. `CNC(=O)Cn1c(C)nc2nn(-c3ccc(C)cc3C)cc2c1=O` [Example 17] showed an inhibition at 2.4 µM of -15%. `COC(=O)Cn1c(C)nc2nn(-c3ccc(C)cc3C)cc2c1=O` [Example 14] gave an inhibition at 2.4 µM of -13%. For `Cc1ccc(-n2cc3c(=O)n(CC(=O)N(C)C)c(C)nc3n2)c(C)c1` [Example 16], the inhibition at 2.4 µM was -14%.
